Measurements from PubChem BioAssay (NCI).
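Cultured in 96-well plates, cells were exposed to test compound for 48 hours across five concentrations. Abbreviation: GI50, concentration required for 50% inhibition of growth. TGI: total growth inhibition.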

Legend:
Assay in all cases: NCI anticancer screen, dose series, 48 h
[1] = tested on: HOP-92 NSCLC
[2] = tested on: SN12C renal
[3] = tested on: ACHN renal
[4] = tested on: OVCAR-5 ovarian
[5] = tested on: SK-OV-3 ovarian
[6] = tested on: DU-145 prostate
[7] = tested on: SW-620 colon
[8] = tested on: SF-539 CNS
[9] = tested on: HS 578T breast
[10] = tested on: SR leukemia
[11] = tested on: NCI-H460 lung
[12] = tested on: COLO 205 colon
[13] = tested on: K-562 leukemia
[14] = tested on: RPMI-8226 leukemia
[15] = tested on: OVCAR-8 ovarian
[16] = tested on: UACC-62 melanoma
[17] = tested on: EKVX NSCLC
[18] = tested on: SNB-19 CNS
[19] = tested on: UO-31 renal
[20] = tested on: 786-0 renal
[21] = tested on: OVCAR-3 ovarian
[22] = tested on: BT-549 breast
[23] = tested on: NCI-H226 lung
[24] = tested on: CAKI-1 renal
[25] = tested on: HOP-62 NSCLC
[26] = tested on: LOX IMVI melanoma
[27] = tested on: MDA-MB-231 breast
[28] = tested on: SK-MEL-2 melanoma
[29] = tested on: IGROV1 ovarian
[30] = tested on: OVCAR-4 ovarian
[31] = tested on: M14 melanoma
[32] = tested on: SK-MEL-5 melanoma
[33] = tested on: MDA-MB-435
[34] = tested on: U251 CNS
[35] = tested on: PC-3 prostate
[36] = tested on: HCT-116 colon
[37] = tested on: HL-60(TB) leukemia
[38] = tested on: KM12 colon
[39] = tested on: RXF 393 renal
[40] = tested on: HCT-15 colon
[41] = tested on: MOLT-4 leukemia
[42] = tested on: SF-295 CNS
[43] = tested on: SF-268 CNS
[44] = tested on: NCI-H522 lung
[45] = tested on: UACC-257 melanoma
[46] = tested on: SNB-75 CNS

SMILES: CC1=C(C(=O)Nc2ccc(Cl)c(Cl)c2)C(c2cccc(O)c2)NC(=S)N1 (configuration not stated)
- GI50 [1]: 13.6 µM
- TGI [1]: 35.2 µM
- GI50 [2]: 8.66 µM
- TGI [2]: 20.1 µM
- GI50 [3]: 9.23 µM
- TGI [3]: 19.7 µM
- GI50 [4]: > 50 µM
- TGI [4]: > 50 µM
- GI50 [5]: 10 µM
- TGI [5]: 20.4 µM
- GI50 [6]: 7.28 µM
- TGI [6]: 14.5 µM
- GI50 [7]: 12.5 µM
- TGI [7]: 33.2 µM
- GI50 [8]: 8.15 µM
- TGI [8]: 15.7 µM
- GI50 [9]: 9.5 µM
- TGI [9]: 24.9 µM
- GI50 [10]: 14.2 µM
- TGI [10]: 49 µM
- GI50 [11]: 13.5 µM
- TGI [11]: 21.4 µM
- GI50 [12]: 7.09 µM
- TGI [12]: 14.6 µM
- GI50 [13]: 10.8 µM
- TGI [13]: 37.3 µM
- GI50 [14]: 10.1 µM
- TGI [14]: 38.1 µM
- GI50 [15]: 15.9 µM
- TGI [15]: 28.1 µM
- GI50 [16]: 7.09 µM
- TGI [16]: 14.7 µM
- GI50 [17]: 9.38 µM
- TGI [17]: 21.4 µM
- GI50 [18]: 11.4 µM
- TGI [18]: 30.3 µM
- GI50 [19]: 9.48 µM
- TGI [19]: 19.1 µM
- GI50 [20]: 9.47 µM
- TGI [20]: 20 µM
- GI50 [21]: 5.69 µM
- TGI [21]: 12.5 µM
- GI50 [22]: 7.97 µM
- TGI [22]: 19.3 µM
- GI50 [23]: 12 µM
- TGI [23]: 30.8 µM
- GI50 [24]: 14.4 µM
- TGI [24]: 38.5 µM
- GI50 [25]: 17.3 µM
- TGI [25]: 31.2 µM
- GI50 [26]: 7.09 µM
- TGI [26]: 13.8 µM
- GI50 [27]: 8.44 µM
- TGI [27]: 20 µM
- GI50 [28]: 8 µM
- TGI [28]: 18.3 µM
- GI50 [29]: 12.8 µM
- TGI [29]: 44.2 µM
- GI50 [30]: 12.4 µM
- TGI [30]: > 50 µM
- GI50 [31]: 13.6 µM
- TGI [31]: 26.7 µM
- GI50 [32]: 8.12 µM
- TGI [32]: 15.4 µM
- GI50 [33]: 9.16 µM
- TGI [33]: 18.5 µM
- GI50 [34]: 8.82 µM
- TGI [34]: 18.1 µM
- GI50 [35]: 9.54 µM
- TGI [35]: 31.4 µM
- GI50 [36]: 18.1 µM
- TGI [36]: > 50 µM
- GI50 [37]: 11.2 µM
- TGI [37]: 44.2 µM
- GI50 [38]: 7.77 µM
- TGI [38]: 16.6 µM
- GI50 [39]: 12.8 µM
- TGI [39]: 29.3 µM
- GI50 [40]: 21.8 µM
- TGI [40]: > 50 µM
- GI50 [41]: 16.8 µM
- TGI [41]: > 50 µM
- GI50 [42]: 8.63 µM
- TGI [42]: 17.6 µM
- GI50 [43]: 8.35 µM
- TGI [43]: 17 µM
- GI50 [44]: 12 µM
- TGI [44]: 25.2 µM
- GI50 [45]: 12.5 µM
- TGI [45]: > 50 µM
- GI50 [46]: 11.8 µM
- TGI [46]: 47.8 µM
